In article PMC8815882, “Screening the pandemic response box identified benzimidazole carbamates, Olorofim and ravuconazole as promising drug candidates for the treatment of eumycetoma” (PLoS Neglected Tropical Diseases, 2022):
Where two headings read alike, the source gives them in different places.

Tested on: M. mycetomatis genome strain MM55
Test: CLSI M38-A2 based in vitro susceptibility screening (XTT or resazurin), growth at fixed concentration
Format: cell-based, Madurella mycetomatis
Details: Madurella mycetomatis; for Percent fungal survival at 100 µM: read-out: Percentage survival at 100um, 100 uM A (second replicate column)
[1] = mean of replicates, MM55, read-out: Percentage survival at 25um, 25 uM mean
[2] = replicate A, MM55, read-out: Percentage survival at 25um, 25 um A
[3] = replicate B, MM55, read-out: Percentage survival at 25um, 25 uM B
[4] = replicate C, MM55, read-out: Percentage survival at 25um, 25 uM C
[5] = mean of replicates, MM55, read-out: Percentage survival at 100um, 100 uM mean
[6] = replicate 1, MM55, read-out: Percentage survival at 100um, 100 uM A
[7] = replicate 2, MM55, read-out: Percentage survival at 100um, 100 uM A
[8] = replicate 3, MM55, read-out: Percentage survival at 100um, 100 uM A
[9] = mean of three, M. mycetomatis MM55, read-out: Percentage survival at 25um, 25 uM mean
[10] = replicate A, M. mycetomatis MM55, read-out: Percentage survival at 25um, 25 um A
[11] = replicate B, M. mycetomatis MM55, read-out: Percentage survival at 25um, 25 uM B
[12] = replicate C, M. mycetomatis MM55, read-out: Percentage survival at 25um, 25 uM C
[13] = mean of three, M. mycetomatis MM55, read-out: Percentage survival at 100um, 100 uM mean
[14] = replicate 1, M. mycetomatis MM55, read-out: Percentage survival at 100um, 100 uM A (first replicate column)
[15] = replicate 2, M. mycetomatis MM55
[16] = replicate 3, M. mycetomatis MM55, read-out: Percentage survival at 100um, 100 uM A (third replicate column)
[17] = mean, read-out: Percentage survival at 25um, 25 uM mean
[18] = replicate A, read-out: Percentage survival at 25um, 25 um A
[19] = replicate B, read-out: Percentage survival at 25um, 25 uM B
[20] = replicate C, read-out: Percentage survival at 25um, 25 uM C
[21] = mean, read-out: Percentage survival at 100um, 100 uM mean
[22] = replicate (first column), read-out: Percentage survival at 100um, 100 uM A
[23] = replicate (second column), read-out: Percentage survival at 100um, 100 uM A
[24] = replicate (third column), read-out: Percentage survival at 100um, 100 uM A
[25] = mean of replicates, read-out: Percentage survival at 25um, 25 uM mean
[26] = mean of replicates, read-out: Percentage survival at 100um, 100 uM mean
[27] = replicate 1, read-out: Percentage survival at 100um, 100 uM A
[28] = replicate 2, read-out: Percentage survival at 100um, 100 uM A
[29] = replicate 3, read-out: Percentage survival at 100um, 100 uM A
[30] = replicate 1, read-out: Percentage survival at 100um, 100 uM A (first replicate column)
[31] = replicate 3, read-out: Percentage survival at 100um, 100 uM A (third replicate column)
[32] = mean of three replicates, read-out: Percentage survival at 25um, 25 uM mean
[33] = first replicate column, read-out: Percentage survival at 100um, 100 uM A
[34] = mean of three replicates, read-out: Percentage survival at 100um, 100 uM mean
[35] = second replicate column, read-out: Percentage survival at 100um, 100 uM A
[36] = third replicate column, read-out: Percentage survival at 100um, 100 uM A

SMILES | activity at 25 µM [1] [%] | activity at 25 µM [2] [%] | activity at 25 µM [3] [%] | activity at 25 µM [4] [%] | activity at 100 µM [5] [%] | activity at 100 µM [6] [%] | activity at 100 µM [7] [%] | activity at 100 µM [8] [%] | activity at 25 µM [18] [%] | activity at 25 µM [19] [%] | activity at 25 µM [20] [%] | further results
Cn1c2ccccc2c(=O)c2c(O)cccc21 [MMV1580500] | 65 | 63.1 | 67.8 | 64.2 | 58.6 | 66.8 | 57.2 | 51.8 |  |  |  | 
CNC(=O)C1O[C@@H](n2cnc3c(NCc4cccc(I)c4)nc(Cl)nc32)[C@H](O)[C@@H]1O (stereo partly drawn) [MMV1593514] | 94.9 | 85.8 | 83.7 | 115 | 80.9 | 74.5 | 99.3 | 68.9 |  |  |  | 
COc1ccc(C(C)(C)C)cc1NC(=O)C(=O)c1ccc(OCCN2CCOCC2)c2ccccc12 [MMV1782209] | 96.3 | 102 | 99.5 | 87.2 | 91.3 | 102 | 86 | 85.7 |  |  |  | 
O=c1cc(OCc2ccccc2)ccn1Cc1ccccc1 [MMV1579775] |  |  |  |  |  |  |  |  |  |  |  | activity at 25 µM [9]: 71.3%; activity at 25 µM [10]: 65.3%; activity at 25 µM [11]: 61.6%; activity at 25 µM [12]: 87.1%; activity at 100 µM [13]: 63.4%; activity at 100 µM [14]: 61.9%; Percent fungal survival at 100 µM [15]: 72.8%; activity at 100 µM [16]: 55.4%
Nc1nc2c(ncn2/C=C2/CC2(CO)CO)c(=O)[nH]1 [MMV1782210] | 94.9 | 102 | 100 | 83.3 | 81.8 | 89.9 | 79.8 | 75.6 |  |  |  | 
CC(C)(C)c1cccc(-c2nc3cc(C(=N)N)ccc3[nH]2)c1O [MMV1581548] |  |  |  |  |  |  |  |  | 56.8 | 2.31 | 2.96 | activity at 25 µM [17]: 20.7%; activity at 100 µM [21]: 3.06%; activity at 100 µM [22]: -0.0188%; activity at 100 µM [23]: 5.51%; activity at 100 µM [24]: 3.71%
CN(Cc1ccc(C(C)(C)C)cc1)Cc1cccc2ccccc12 [MMV637104] |  |  |  |  |  |  |  |  | 58.2 | -0.523 | 64.9 | activity at 25 µM [17]: 40.9%; activity at 100 µM [21]: 61.2%; activity at 100 µM [22]: 61.4%; activity at 100 µM [23]: 65.7%; activity at 100 µM [24]: 56.6%
C[C@H]1COc2c(N3CCN(C)CC3)c(F)cc3c(=O)c(C(=O)O)cn1c23 [MMV687798] | 96.2 | 101 | 105 | 82.9 | 91.4 | 97.4 | 91.1 | 85.7 |  |  |  | 
Nc1nnc(-c2ccc(Cl)cc2)s1 [MMV046261] |  |  |  |  |  |  |  |  | 77.9 | 83 | 86.2 | activity at 25 µM [25]: 82.4%; activity at 100 µM [26]: 69.4%; activity at 100 µM [27]: 62.5%; activity at 100 µM [28]: 72.1%; activity at 100 µM [29]: 73.6%
O=C(O)/C=C/C=C/c1cccc(Oc2cc(Cl)cc(Cl)c2)c1 [MMV1633963] | 44.9 | 58.7 | 58.6 | 17.4 | 7.42 | 7.5 | 5.34 | 9.43 |  |  |  | 
O=C1NC(=O)C(Br)=C1Br [MMV1578554] |  |  |  |  |  |  |  |  | 80.1 | 86.3 | 64.3 | activity at 25 µM [25]: 76.9%; activity at 100 µM [26]: 43.3%; activity at 100 µM [27]: -3.69%; activity at 100 µM [28]: 60.2%; activity at 100 µM [29]: 73.5%
CC(C)CCN1C(=O)C(C2=NS(=O)(=O)c3cc(NS(C)(=O)=O)ccc3N2)=C(O)[C@@H]2[C@H]3CC[C@H](C3)[C@@H]21 [MMV1782220] | 83.6 | 78.4 | 83.3 | 89.2 | 113 | 140 | 71 | 127 |  |  |  | 
Cc1nc(N(C)C(=O)Cc2ccc(-c3ccccn3)cc2)sc1S(N)(=O)=O [MMV1580486] | 82.6 | 102 | 96.5 | 49.6 | 83.5 | 93.3 | 93.6 | 63.7 |  |  |  | 
COc1cc(Cc2cnc(N)nc2N)c2c(c1OC)OC(C1CC1)C=C2 (stereo not drawn) [MMV1613563] |  |  |  |  |  |  |  |  | 106 | 107 | 86.9 | activity at 25 µM [25]: 99.9%; activity at 100 µM [26]: 91.5%; activity at 100 µM [30]: 93.6%; Percent fungal survival at 100 µM (replicate 2): 93.2%; activity at 100 µM [31]: 87.7%
Cc1ccccc1NC(=O)Nc1cccc([N+](=O)[O-])c1 [MMV1581029] |  |  |  |  |  |  |  |  | 95.8 | 97.7 | 74 | activity at 25 µM [32]: 89.2%; activity at 100 µM [33]: 95.6%; activity at 100 µM [34]: 92.5%; activity at 100 µM [35]: 104%; activity at 100 µM [36]: 77.8%
CCc1nc(N)nc(N)c1C#CC(C)c1cc(OC)cc(-c2ccncc2)c1 (stereo not drawn) [MMV1580844] |  |  |  |  |  |  |  |  |  |  |  | activity at 25 µM [9]: 31.6%; activity at 25 µM [10]: 86.9%; activity at 25 µM [11]: 5.16%; activity at 25 µM [12]: 2.83%; activity at 100 µM [13]: -1.56%; activity at 100 µM [14]: -1.7%; Percent fungal survival at 100 µM [15]: -1.01%; activity at 100 µM [16]: -1.98%
O=C(O)C[C@H]1CC[C@H](c2ccc(-c3ccc(Nc4ccc(C(F)(F)F)nc4)cn3)cc2)CC1 [MMV1580498] | 72.2 | 72.4 | 58.9 | 85.2 | 80.6 | 82.3 | 88.6 | 70.8 |  |  |  | 
CCc1cc(CCC(=O)Nc2ccccc2O)c(=O)[nH]c1C [MMV1782106] |  |  |  |  |  |  |  |  | 84.9 | 85.4 | 105 | activity at 25 µM [32]: 91.9%; activity at 100 µM [33]: 83.7%; activity at 100 µM [34]: 83.9%; activity at 100 µM [35]: 82.9%; activity at 100 µM [36]: 85.1%
CCC[C@H](NC(=O)[C@@H]1[C@H]2CCC[C@H]2CN1C(=O)[C@@H](NC(=O)[C@@H](NC(=O)c1cnccn1)C1CCCCC1)C(C)(C)C)C(=O)C(=O)NC1CC1 [MMV1580494] | 85.9 | 89.9 | 95.2 | 72.5 | 89.5 | 96.1 | 101 | 71.1 |  |  |  | 
CCN1CCN(Cc2nc3ccc([N+](=O)[O-])cc3c(=O)n2-c2ccccc2F)CC1 [MMV275100] | 81.2 | 83 | 93.5 | 67.1 | 72.6 | 70.7 | 69.8 | 77.1 |  |  |  | 
O=P(O)(O)C(CCCc1cccc(Oc2ccccc2)c1)S(=O)(=O)O (stereo not drawn) [MMV1782215] |  |  |  |  |  |  |  |  | 82.3 | 68.2 | 56.8 | activity at 25 µM [32]: 69.1%; activity at 100 µM [34]: 68.9%; activity at 100 µM [30]: 79.5%; Percent fungal survival at 100 µM (replicate 2): 65.1%; activity at 100 µM [31]: 62%
